Test results from ChEMBL document CHEMBL5465560, “Selectivity Literature for EUbOPEN Chemogenomic Library” (2024).
Each block holds one molecule with its values, some of them ahead of it.

Experiments:
[1] = target: Casein kinase II subunit alpha' (Homo sapiens) (UniProt P19784); test: Selectivity interaction (KinomeScan (DiscoverX)) EUB0000607a CSNK2A2; conditions: at 10 µM
[2] = target: T1, Serine/threonine-protein kinase LATS1 (Homo sapiens) (UniProt O95835); test: Selectivity interaction (ActivX KiNativ screen (kinase selectivity in THP-1 cell lysates)) EUB0000639a LATS1; type: subcellular; conditions: lysate, at 0.2 µM
T1 sequence (whole entry): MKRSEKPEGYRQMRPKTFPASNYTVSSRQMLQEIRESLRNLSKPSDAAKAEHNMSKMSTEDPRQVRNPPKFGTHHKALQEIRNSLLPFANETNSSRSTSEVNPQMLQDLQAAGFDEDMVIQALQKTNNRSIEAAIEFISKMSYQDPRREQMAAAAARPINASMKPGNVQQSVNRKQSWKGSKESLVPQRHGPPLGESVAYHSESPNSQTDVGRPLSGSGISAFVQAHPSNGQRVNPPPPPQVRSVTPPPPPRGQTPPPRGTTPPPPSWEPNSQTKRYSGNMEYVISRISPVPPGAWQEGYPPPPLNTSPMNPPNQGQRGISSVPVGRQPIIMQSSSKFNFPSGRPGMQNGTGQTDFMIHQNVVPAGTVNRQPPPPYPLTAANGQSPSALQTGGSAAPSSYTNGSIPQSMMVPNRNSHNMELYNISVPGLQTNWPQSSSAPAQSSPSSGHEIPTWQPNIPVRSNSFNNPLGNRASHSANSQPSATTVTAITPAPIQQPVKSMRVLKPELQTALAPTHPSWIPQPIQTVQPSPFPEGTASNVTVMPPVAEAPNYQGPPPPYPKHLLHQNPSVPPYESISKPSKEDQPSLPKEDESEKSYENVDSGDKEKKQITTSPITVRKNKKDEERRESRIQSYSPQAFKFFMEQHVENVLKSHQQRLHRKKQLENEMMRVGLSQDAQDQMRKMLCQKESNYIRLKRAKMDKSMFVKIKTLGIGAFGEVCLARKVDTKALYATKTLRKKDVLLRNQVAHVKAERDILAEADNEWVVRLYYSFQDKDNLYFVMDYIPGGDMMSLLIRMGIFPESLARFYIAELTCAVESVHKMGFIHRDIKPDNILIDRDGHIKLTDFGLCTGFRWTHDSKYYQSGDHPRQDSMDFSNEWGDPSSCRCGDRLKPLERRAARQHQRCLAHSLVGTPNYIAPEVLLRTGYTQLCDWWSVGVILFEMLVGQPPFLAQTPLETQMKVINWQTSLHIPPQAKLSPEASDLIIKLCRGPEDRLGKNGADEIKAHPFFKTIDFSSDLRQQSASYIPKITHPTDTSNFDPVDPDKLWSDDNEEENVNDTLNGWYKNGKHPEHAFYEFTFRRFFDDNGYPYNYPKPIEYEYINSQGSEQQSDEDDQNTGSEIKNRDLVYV

[3] = target: Casein kinase II subunit alpha (Homo sapiens, UniProt P68400); test: Selectivity interaction (ActivX KiNativ screen (kinase selectivity in THP-1 cell lysates)) EUB0000639a CSNK2A1; type: subcellular; conditions: lysate
[4] = target: T2, Serine/threonine-protein kinase BRSK1 (Homo sapiens) (UniProt Q8TDC3); test: Selectivity interaction (Kinase panel (Invitrogen)) EUB0000639a BRSK1; conditions: at 200 nM
T2 sequence (whole entry): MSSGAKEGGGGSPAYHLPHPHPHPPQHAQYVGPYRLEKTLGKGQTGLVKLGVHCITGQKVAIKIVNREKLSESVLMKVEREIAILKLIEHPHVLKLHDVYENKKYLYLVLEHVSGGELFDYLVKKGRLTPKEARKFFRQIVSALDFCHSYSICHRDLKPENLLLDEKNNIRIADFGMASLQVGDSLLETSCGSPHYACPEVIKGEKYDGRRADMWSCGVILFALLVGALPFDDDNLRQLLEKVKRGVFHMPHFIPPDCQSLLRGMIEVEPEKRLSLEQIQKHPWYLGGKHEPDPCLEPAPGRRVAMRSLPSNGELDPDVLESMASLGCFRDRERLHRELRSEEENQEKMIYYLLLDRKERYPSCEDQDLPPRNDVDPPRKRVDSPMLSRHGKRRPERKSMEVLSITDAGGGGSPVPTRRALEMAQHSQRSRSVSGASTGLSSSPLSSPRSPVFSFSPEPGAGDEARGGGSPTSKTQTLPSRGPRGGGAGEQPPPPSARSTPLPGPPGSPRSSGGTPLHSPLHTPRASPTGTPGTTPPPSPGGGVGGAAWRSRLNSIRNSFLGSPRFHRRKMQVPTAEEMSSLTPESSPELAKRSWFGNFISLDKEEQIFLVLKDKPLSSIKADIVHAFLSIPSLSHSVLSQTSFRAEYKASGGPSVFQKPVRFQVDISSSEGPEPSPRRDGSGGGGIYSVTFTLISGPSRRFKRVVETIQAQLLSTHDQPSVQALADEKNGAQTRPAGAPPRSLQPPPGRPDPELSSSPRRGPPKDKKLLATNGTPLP

[5] = target: T3, 3-phosphoinositide-dependent protein kinase 1 (Homo sapiens) (UniProt O15530); test: Selectivity interaction (KinomeScan (DiscoverX)) EUB0001049a PDPK1; conditions: at 1 µM
T3 sequence (whole entry): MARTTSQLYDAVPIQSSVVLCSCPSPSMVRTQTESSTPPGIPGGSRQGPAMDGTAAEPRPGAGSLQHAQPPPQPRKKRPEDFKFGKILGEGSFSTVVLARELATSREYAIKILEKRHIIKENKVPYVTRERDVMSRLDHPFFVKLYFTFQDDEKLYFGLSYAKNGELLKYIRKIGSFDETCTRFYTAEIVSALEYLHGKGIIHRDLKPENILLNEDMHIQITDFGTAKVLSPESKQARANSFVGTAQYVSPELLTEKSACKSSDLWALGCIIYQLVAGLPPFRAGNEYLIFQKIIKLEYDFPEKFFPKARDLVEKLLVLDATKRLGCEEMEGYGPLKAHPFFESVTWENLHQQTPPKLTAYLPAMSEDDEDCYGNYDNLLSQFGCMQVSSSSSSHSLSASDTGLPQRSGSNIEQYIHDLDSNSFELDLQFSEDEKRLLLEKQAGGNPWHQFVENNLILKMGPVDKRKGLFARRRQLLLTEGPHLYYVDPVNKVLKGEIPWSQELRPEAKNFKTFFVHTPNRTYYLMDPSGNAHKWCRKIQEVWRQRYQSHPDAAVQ

[6] = target: Ephrin type-A receptor 7 (Homo sapiens) (UniProt Q15375); test: Selectivity interaction (Ambit KINOMEscan and KiNATiv profiling in Jurkat cells) EUB0000090b EPHA7; type: cell-based; conditions: at 1 µM
[7] = target: Mitogen-activated protein kinase kinase kinase 20 (Homo sapiens) (UniProt Q9NYL2); test: Selectivity interaction (KinomeScan (DiscoverX)) EUB0000229b MAP3K20; conditions: at 10 µM
Sequence of Mitogen-activated protein kinase kinase kinase 20 (Homo sapiens) (Q9NYL2 2-800 limits assumed): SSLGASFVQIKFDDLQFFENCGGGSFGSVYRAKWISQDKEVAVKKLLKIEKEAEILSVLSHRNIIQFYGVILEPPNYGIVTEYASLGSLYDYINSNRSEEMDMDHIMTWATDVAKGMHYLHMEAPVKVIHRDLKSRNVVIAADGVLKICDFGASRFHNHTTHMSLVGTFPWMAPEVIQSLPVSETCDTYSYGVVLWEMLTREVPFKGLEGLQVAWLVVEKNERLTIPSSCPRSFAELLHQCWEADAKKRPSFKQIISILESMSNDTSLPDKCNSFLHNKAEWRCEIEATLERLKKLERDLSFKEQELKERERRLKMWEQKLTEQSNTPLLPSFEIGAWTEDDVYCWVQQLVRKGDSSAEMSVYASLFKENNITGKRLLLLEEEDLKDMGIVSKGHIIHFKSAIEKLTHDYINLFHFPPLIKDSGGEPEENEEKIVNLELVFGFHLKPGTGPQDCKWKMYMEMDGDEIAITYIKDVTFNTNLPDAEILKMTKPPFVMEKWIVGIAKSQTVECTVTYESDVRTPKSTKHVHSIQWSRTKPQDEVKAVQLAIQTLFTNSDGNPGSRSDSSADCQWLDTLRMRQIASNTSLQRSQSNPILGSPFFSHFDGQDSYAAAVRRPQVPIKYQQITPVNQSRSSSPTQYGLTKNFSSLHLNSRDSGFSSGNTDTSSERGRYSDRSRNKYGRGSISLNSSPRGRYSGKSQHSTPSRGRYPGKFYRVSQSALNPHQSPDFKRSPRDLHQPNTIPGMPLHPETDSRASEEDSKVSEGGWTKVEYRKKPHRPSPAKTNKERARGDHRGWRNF

Sequence of Casein kinase II subunit alpha (P68400 whole entry, looked up): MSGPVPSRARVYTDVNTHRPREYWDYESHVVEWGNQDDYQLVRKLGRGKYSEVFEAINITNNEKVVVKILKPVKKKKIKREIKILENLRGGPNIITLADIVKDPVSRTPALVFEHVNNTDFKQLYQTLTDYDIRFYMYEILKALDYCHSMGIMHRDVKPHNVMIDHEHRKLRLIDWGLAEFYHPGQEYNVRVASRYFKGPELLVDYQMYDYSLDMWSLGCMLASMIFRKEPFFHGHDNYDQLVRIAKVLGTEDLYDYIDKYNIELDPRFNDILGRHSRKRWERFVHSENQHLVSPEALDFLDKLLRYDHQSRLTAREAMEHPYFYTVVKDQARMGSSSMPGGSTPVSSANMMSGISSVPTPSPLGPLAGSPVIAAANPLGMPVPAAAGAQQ
Sequence of Casein kinase II subunit alpha' (Homo sapiens) (P19784 whole entry, looked up): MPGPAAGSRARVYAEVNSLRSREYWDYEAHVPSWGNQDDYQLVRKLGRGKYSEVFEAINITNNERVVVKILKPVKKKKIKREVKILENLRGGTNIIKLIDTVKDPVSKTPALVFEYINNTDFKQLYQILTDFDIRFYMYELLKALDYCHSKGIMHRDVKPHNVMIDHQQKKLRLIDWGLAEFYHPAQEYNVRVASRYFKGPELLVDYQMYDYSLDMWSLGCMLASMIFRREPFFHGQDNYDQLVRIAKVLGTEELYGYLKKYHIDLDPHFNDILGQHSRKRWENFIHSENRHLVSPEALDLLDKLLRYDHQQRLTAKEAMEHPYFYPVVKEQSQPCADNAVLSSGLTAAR
Sequence of Ephrin type-A receptor 7 (Homo sapiens) (Q15375 28-998 limits assumed): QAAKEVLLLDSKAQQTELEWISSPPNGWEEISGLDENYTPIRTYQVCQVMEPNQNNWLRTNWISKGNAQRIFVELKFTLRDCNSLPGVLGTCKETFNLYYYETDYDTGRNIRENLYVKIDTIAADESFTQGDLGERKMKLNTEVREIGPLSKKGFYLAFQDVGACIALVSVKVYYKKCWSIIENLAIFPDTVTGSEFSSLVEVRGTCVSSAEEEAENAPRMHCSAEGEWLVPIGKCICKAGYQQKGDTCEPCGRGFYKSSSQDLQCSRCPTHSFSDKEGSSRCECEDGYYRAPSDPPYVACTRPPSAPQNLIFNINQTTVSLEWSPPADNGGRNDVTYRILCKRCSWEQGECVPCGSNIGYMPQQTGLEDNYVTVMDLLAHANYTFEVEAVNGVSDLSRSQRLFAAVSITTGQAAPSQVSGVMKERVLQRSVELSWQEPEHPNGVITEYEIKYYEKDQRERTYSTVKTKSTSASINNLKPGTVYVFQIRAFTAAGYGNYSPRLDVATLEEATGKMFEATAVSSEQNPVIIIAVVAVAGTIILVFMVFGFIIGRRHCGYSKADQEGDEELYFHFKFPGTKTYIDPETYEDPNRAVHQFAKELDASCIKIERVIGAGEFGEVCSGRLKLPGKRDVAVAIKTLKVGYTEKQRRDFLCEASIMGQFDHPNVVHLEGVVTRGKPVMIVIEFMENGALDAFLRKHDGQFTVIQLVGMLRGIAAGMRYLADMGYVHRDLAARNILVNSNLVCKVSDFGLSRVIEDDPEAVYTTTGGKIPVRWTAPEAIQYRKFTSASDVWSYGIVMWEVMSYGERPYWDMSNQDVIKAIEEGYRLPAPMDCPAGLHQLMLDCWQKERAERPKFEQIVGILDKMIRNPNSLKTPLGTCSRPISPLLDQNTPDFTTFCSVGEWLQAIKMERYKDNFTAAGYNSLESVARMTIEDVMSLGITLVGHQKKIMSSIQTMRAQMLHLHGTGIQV

SMILES: CNC(=O)Nc1ccc(-c2nc(N3CC4CCC(C3)O4)c3cnn(C4CCC5(CC4)OCCO5)c3n2)cc1
- % of control [1]: 100%

- % of inhibition [2]: -82.2%
- % of inhibition ([3]; at 1 µM): 25.8%
- % of inhibition ([3]; at 5 µM): -6.9%
- % of inhibition [4]: 23.6%
SMILES: CC[C@@H]1[C@H](F)C(=O)N[C@@H]1COc1nccc2cc(C(N)=O)c(OC)cc12 [ZIMLOVISERTIB]

SMILES: COc1cc(Nc2nc(C)cc(-c3cnn4nc(OC)ccc34)n2)cc(C(F)(F)F)c1
- % of control [5]: 100%

SMILES: CN(C)C/C=C/C(=O)Nc1ccc(C(=O)N2CCCC(Nc3ncc(Cl)c(-c4c[nH]c5ccccc45)n3)C2)cc1 (stereo not drawn)
- % of control [6]: 93%

SMILES: COc1cc(N(C)c2ccnc3ccc(C(F)(F)F)cc23)cc(OC)c1OC
- % binding [7]: 91%
